Marks after values point to notes of the source that are not given here.

Here are results for one compound from patent US20230085721A1, “PIGMENT COMPRISING RAPHANUS SATIVUS EXTRACT AND MONTMORILLONITE” (GIVAUDAN SA, priority 2020, published 2023).

The assay deals with human normal keratinocytes (NHEKs). Description: ROS production after oxidative stress (DCFH-DA method). The following applies: 200 μM. It is filed as cell-based. The method, then:
The anti-oxidant properties of Raphanus sativus L. root extract was evaluated using human normal keratinocytes (NHEKs) by quantification of Reactive Oxygen Species (ROS) production after oxidative stress exposure according to the dichlorodihydrofluorescein diacetate (DCFH-DA; “Dichloro-dihydro-fluorescein diacetate (DCFH-DA) assay: a quantitative method for oxidative stress assessment of nanoparticle-treated cells”. Aranda et al. Toxicol In Vitro. 2013, 27(2):954-63.) method. In contact with cells, DCFH-DA is cleaved inside the cell to DCFH which is able to interact with reactive oxygen species (ROS) during oxidative stress leading to fluorescence emission. Consequently, the fluorescence emitted is correlated to the antioxidant property of the tested compound. The cell culture was done on primary cells freshly isolated from biopsies. Normal Human Epidermal Keratinocytes (NHEKs) were seeded in a black plate with a glass bottom at 20′000 cells per well in 96-wells plates with a type I collagen pre-coating in quadruplicate. The cells were incubated for 24 hours in complete medium (Epilife medium supplemented with HKGS) at 37° C. with 5% CO2. […] Finally, the emitted fluorescence was measured in darkness by excitation wavelength at 488 nm and emission wavelength at 525 nm with microplate reader (TECAN). […]

Take `Oc1ccc(C=Cc2cc(O)cc(O)c2)cc1` [Resveratrol]: the “Comparison to oxidative stress, no active” value (5 mM TBP, p < 0.001) is −76%***. Moreover, the “Mean relative to TBP condition” value (ROS, NHEKs, oxidative stress 5 mM TBP) was found to be 24.0%.
